Like-named read-outs stand apart in the source and are kept apart here.
Legend:
PI3 kinase alpha = PI3 kinase alpha (Homo sapiens, UniProt P42336); assay: PI3K ATP depletion assay (Biological Method 1, Assay 3; KinaseGlo luminescence); format: biochemical; details: ATP depletion assay, read-out: PI3 Kinase Alpha, IC50
In short: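 Compound in DMSO was mixed with 10 nM PI3 kinase and 5 μg/mL phosphatidylinositol, and the reaction was started with 2 μM ATP. It ran to about 50% ATP depletion and was stopped with KinaseGlo.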

[1] = system: A2780 ovarian cancer cells; assay: Cellular proliferation in A2780 cells, Cell Titer Glo (Biological Method 4); format: cell-based; details: Homo sapiens
In short: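 Viability after 72 h compound exposure (37 °C, 5% CO2) was read by Cell Titer Glo and an EC50 derived, each condition in duplicate. A2780 ovarian cells had been plated at 1,000 per well in DMEM/10% FBS at least 2 h beforehand.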

[2] = ovarian cancer cell line A2780, Biological Method 4

PI3 kinase alpha, sequence (P42336 whole entry): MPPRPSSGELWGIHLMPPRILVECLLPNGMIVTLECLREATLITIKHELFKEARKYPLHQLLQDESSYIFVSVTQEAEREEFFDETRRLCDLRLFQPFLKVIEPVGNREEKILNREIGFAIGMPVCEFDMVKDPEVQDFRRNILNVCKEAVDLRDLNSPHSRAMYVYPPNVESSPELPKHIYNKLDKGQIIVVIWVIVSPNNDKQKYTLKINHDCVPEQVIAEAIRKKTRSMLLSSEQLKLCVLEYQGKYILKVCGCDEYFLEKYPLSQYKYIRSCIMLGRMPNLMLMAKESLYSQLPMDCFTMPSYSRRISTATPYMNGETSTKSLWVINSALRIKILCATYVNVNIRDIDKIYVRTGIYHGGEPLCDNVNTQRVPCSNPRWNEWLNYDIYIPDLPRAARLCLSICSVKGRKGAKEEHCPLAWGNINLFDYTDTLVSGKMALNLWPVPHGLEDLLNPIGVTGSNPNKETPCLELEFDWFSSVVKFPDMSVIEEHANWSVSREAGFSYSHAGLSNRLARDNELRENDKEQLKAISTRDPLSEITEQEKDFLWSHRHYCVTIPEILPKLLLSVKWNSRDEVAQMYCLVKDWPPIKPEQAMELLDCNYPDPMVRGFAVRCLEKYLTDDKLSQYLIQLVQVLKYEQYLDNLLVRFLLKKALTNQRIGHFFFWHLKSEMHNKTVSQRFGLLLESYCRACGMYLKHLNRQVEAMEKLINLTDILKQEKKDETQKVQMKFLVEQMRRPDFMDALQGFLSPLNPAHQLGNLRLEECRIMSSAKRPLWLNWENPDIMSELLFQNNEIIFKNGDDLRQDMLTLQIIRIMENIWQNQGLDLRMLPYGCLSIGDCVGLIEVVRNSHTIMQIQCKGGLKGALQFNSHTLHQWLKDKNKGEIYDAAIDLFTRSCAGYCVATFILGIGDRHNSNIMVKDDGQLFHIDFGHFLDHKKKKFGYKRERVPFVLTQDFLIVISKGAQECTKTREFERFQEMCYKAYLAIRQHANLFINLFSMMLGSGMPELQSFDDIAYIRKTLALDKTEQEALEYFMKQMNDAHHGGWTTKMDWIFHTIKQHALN
PI3 kinase alpha, sequence (P27986 whole entry partner): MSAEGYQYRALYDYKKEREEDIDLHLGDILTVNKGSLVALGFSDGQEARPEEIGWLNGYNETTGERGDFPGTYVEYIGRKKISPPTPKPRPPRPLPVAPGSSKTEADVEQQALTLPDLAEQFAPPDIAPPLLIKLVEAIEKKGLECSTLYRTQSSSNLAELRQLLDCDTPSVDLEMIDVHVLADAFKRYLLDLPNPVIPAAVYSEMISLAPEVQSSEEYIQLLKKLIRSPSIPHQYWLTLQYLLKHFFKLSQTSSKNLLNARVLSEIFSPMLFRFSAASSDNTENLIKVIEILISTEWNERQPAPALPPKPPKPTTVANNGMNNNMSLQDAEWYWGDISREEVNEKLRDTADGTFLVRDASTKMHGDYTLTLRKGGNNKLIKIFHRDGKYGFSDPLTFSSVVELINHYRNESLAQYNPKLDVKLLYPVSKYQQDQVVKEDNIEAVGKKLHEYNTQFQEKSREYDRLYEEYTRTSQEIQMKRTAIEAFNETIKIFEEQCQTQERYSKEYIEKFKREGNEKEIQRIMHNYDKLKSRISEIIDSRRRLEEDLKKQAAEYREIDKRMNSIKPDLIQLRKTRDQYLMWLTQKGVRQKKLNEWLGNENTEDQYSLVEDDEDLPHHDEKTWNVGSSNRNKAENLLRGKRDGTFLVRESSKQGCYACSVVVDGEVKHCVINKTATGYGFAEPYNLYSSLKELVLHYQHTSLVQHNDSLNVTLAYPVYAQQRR

Structure (SMILES)	IC50 (PI3 kinase alpha; Biological Method 1)	EC50 [1, 2]	IC50 (PI3 kinase alpha)	EC50 ([1]; ovarian cancer cell line A2780)
CS(=O)(=O)c1cncc(-c2cc(-c3cnc(N)cc3C(F)(F)F)nc(N3CCOCC3)n2)c1 [Compound 266]	< 1 µM	< 10 µM		
Nc1ncc(-c2cc(N3CCOC(c4ccccc4)C3)nc(N3CCOCC3)n2)c(C(F)(F)F)n1 (centres unmarked) [Compound 343]	< 1 µM	< 25 µM		
Nc1ccc(-c2cc(Nc3ccc(OC(CO)CO)nc3)nc(N3CCOCC3)n2)cn1 [Compound 271]	< 1 µM	< 25 µM		
C[C@@H]1CN(c2cc(-c3cnc(N)cc3C(F)(F)F)nc(N3CCOCC3)n2)C[C@H](C)O1 [Compound 327]	< 1 µM	< 10 µM		
Nc1cc(C(F)(F)F)c(-c2cc(Nc3cc(Cl)ccn3)nc(N3CCOCC3)n2)cn1 [Compound 241]	< 1 µM	< 10 µM		
N#Cc1ccccc1Nc1cc(-c2ccc(N)nc2)nc(N2CCOCC2)n1 [Compound 441]			< 1 µM	< 10 µM
CC(=O)N1CCC(Oc2ccc(Nc3cc(-c4cnc(N)nc4N)nc(N4CCOCC4)n3)cn2)CC1 [Compound 261]	< 1 µM	< 10 µM		
Nc1cc(C(F)(F)F)c(-c2cc(N3CCOC(c4ccccc4)C3)nc(N3CCOCC3)n2)cn1 (centres unmarked) [Compound 344]	< 1 µM	< 10 µM		
COc1ccc2cc(Nc3cc(-c4ccc(N)nc4)nc(N4CCOCC4)n3)cnc2c1 [Compound 494]			< 1 µM	< 25 µM
CC(C)N1CCN(c2ccc(Nc3cc(-c4ccc(N)nc4)nc(N4CCOCC4)n3)cn2)CC1 [Compound 509]			< 1 µM	< 10 µM
Nc1cc(C(F)(F)F)c(-c2cc(N3CCOC(C(=O)N4CCOCC4)C3)nc(N3CCOCC3)n2)cn1 (centres unmarked) [Compound 325]	< 1 µM	< 25 µM		
CS(=O)(=O)Nc1cccc(-c2cc(-c3ccc(N)nc3)nc(N3CCOCC3)n2)c1 [Compound 249]	< 1 µM	< 10 µM		
Nc1ccc(-c2cc(Nc3ccc(S(=O)(=O)C(F)(F)F)cc3)nc(N3CCOCC3)n2)cn1 [Compound 358]	< 1 µM	< 10 µM		
Nc1cc(C(F)(F)F)c(-c2cc(Nc3ccc4c(c3)OCCO4)nc(N3CCOCC3)n2)cn1 [Compound 446]			< 1 µM	< 25 µM
Nc1cc(C(F)(F)F)c(-c2cc(Nc3ccncc3)nc(N3CCOCC3)n2)cn1 [Compound 447]			< 1 µM	< 25 µM
CC(C)NC(=O)C1CN(c2cc(-c3cnc(N)cc3C(F)(F)F)nc(N3CCOCC3)n2)CCO1 (centres unmarked) [Compound 330]	< 1 µM	< 25 µM		
CC(=O)Nc1cccc(Nc2cc(-c3ccc(N)nc3)nc(N3CCOCC3)n2)c1 [Compound 363]	< 1 µM	< 10 µM		
Nc1cc(C(F)(F)F)c(-c2cc(Nc3nc(-c4ccccc4)cs3)nc(N3CCOCC3)n2)cn1 [Compound 554]			< 1 µM	< 10 µM
Nc1ccc(-c2cc(Nc3ccnc4c(C(F)(F)F)cccc34)nc(N3CCOCC3)n2)cn1 [Compound 383]	< 1 µM	< 10 µM		
CN(C)C(=O)C1CN(c2cc(-c3cnc(N)cc3C(F)(F)F)nc(N3CCOCC3)n2)CCO1 (centres unmarked) [Compound 326]	< 1 µM	< 25 µM		
N#Cc1cccc(Nc2cc(-c3ccc(N)nc3)nc(N3CCOCC3)n2)c1 [Compound 437]			< 1 µM	< 10 µM
Nc1ncc(-c2cc(O[C@@H]3CCCN(C(=O)OC4CCCC4)C3)nc(N3CCOCC3)n2)c(N)n1 [Compound 526]			< 1 µM	< 10 µM
Nc1ccc(-c2cc(Nc3cccc4[nH]ncc34)nc(N3CCOCC3)n2)cn1 [Compound 347]	< 1 µM	< 10 µM		
COc1cccc(CCNc2cc(-c3ccc(N)nc3)nc(N3CCOCC3)n2)c1 [Compound 303]	< 1 µM	< 10 µM		
Nc1cc(C(F)(F)F)c(-c2cc(Nc3cccc(S(=O)(=O)CCO)c3)nc(N3CCOCC3)n2)cn1 [Compound 318]	< 1 µM	< 10 µM		
Nc1ncc(-c2cc(Nc3cnc4ccc(OC(F)(F)F)cc4c3)nc(N3CCOCC3)n2)cn1 [Compound 495]			< 1 µM	< 25 µM
COC(=O)N1CC[C@@H](Oc2cc(-c3cnc(N)cc3C(F)(F)F)nc(N3CCOCC3)n2)C1 [Compound 539]			< 1 µM	< 10 µM
Nc1ncc(-c2cc(N3CCOc4ccccc43)nc(N3CCOCC3)n2)c(C(F)(F)F)n1 [Compound 546]			< 1 µM	< 10 µM
NC(=O)C1CN(c2cc(-c3cnc(N)cc3C(F)(F)F)nc(N3CCOCC3)n2)CCO1 (centres unmarked) [Compound 320]	< 1 µM	< 10 µM		

Next, values leading:

IC50 (PI3 kinase alpha; Biological Method 1)	EC50 [1, 2]	IC50 (PI3 kinase alpha)	EC50 ([1]; ovarian cancer cell line A2780)	Structure (SMILES)
< 1 µM	< 10 µM			CN1CCN(c2ccc(Nc3cc(-c4ccc(N)nc4)nc(N4CCOCC4)n3)cn2)CC1 [Compound 300]
		< 10 µM	< 25 µM	CN1CCN(C(=O)c2cnc(N3CCOCC3)nc2-c2cnc(N)nc2)CC1 [Compound 428]
		< 1 µM	< 10 µM	Nc1ncc(-c2cc(NC3CCCCC3)nc(N3CCOCC3)n2)cn1 [Compound 405]
		< 1 µM	< 10 µM	Nc1ncc(-c2cc(N3CCCc4ccccc43)nc(N3CCOCC3)n2)cn1 [Compound 411]
< 1 µM	< 10 µM			Nc1ncc(-c2cc(C(=O)Nc3ccncc3)nc(N3CCOCC3)n2)cn1 [Compound 230]
		< 1 µM	< 25 µM	CNc1cc(-c2cnc(N)nc2)nc(N2CCOCC2)n1 [Compound 401]
		< 1 µM	< 1 µM	Cc1c(Nc2ccc3c(c2)OCCO3)nc(N2CCOCC2)nc1-c1cnc(N)nc1 [Compound 481]
< 1 µM	< 25 µM			Nc1cc(C(F)(F)F)c(-c2cc(N3CCC(O)CC3)nc(N3CCOCC3)n2)cn1 [Compound 323]
		< 1 µM	< 10 µM	Nc1ncc(-c2cc(Nc3ccnc4ccc(C(F)(F)F)cc34)nc(N3CCOCC3)n2)cn1 [Compound 410]
		< 1 µM	< 25 µM	Nc1ncc(-c2ccnc(N3CCOCC3)n2)c(N)n1 [Compound 463]
< 1 µM	< 10 µM			Nc1ncc(-c2cc(C(=O)N3CCNCC3)nc(N3CCOCC3)n2)cn1 [Compound 233]
< 1 µM	< 25 µM			Nc1ncc(-c2cc(NC(=O)Cc3cccnc3)nc(N3CCOCC3)n2)cn1 [Compound 291]
		< 1 µM	< 10 µM	Nc1ncc(-c2cc(N3CCCC3Cc3ccccc3)nc(N3CCOCC3)n2)cn1 (centres unmarked) [Compound 407]
		< 1 µM	< 10 µM	Cc1cnc(N2CCOCC2)nc1-c1cnc(N)nc1 [Compound 482]
		< 1 µM	< 25 µM	COC(=O)c1cnc(N2CCOCC2)nc1-c1cnc(N)nc1 [Compound 431]
		< 1 µM	< 10 µM	N#Cc1cc(-c2cnc(N)nc2C(F)(F)F)nc(N2CCOCC2)n1 [Compound 465]
		< 1 µM	< 10 µM	Nc1ccc(-c2cc(N3CCOCC3)nc(N3CCOCC3)n2)c(=O)[nH]1 [Compound 551]
< 1 µM	< 25 µM			Nc1cc(Cl)c(-c2cc(OC3CCOCC3)nc(N3CCOCC3)n2)cn1 [Compound 328]
		< 1 µM	< 25 µM	Nc1ncc(-c2nc(N3CCOCC3)ncc2C(F)(F)F)cn1 [Compound 474]
< 1 µM	< 10 µM			N#Cc1cc(-c2cnc(N)nc2)nc(N2CCOCC2)n1 [Compound 237]
		< 1 µM	< 10 µM	CC(=O)N1CCC[C@H](Oc2cc(-c3cnc(N)nc3N)nc(N3CCOCC3)n2)C1 [Compound 529]
< 1 µM	< 10 µM			Nc1ccc(-c2cc(-c3ccc(N)nc3)nc(N3CCOCC3)n2)cn1 [Compound 245]
		< 1 µM	< 10 µM	CN(c1cc(-c2cnc(N)nc2)nc(N2CCOCC2)n1)C1CCOCC1 [Compound 6]
< 1 µM	< 10 µM			CN1CCN(C(=O)c2cc(-c3cnc(N)nc3)nc(N3CCOCC3)n2)CC1 [Compound 235]
		< 1 µM	< 10 µM	CN(C)c1ccc(-c2cc(-c3ccc(N)nc3)nc(N3CCOCC3)n2)cn1 [Compound 505]
		< 1 µM	< 25 µM	Nc1ncc(-c2cc(NCC3CCCCC3)nc(N3CCOCC3)n2)cn1 [Compound 406]

Reference: US8217035B2, “Pyrimidine derivatives used as PI-3-kinase inhibitors” (Novartis AG, priority 2006, dated 2012)
